# Molecular target: HPK1 (Homo sapiens, UniProt Q92918)
# Test: HPK1 Biochemical Assay (ADP-Glo luminescence; low ATP 10 μM or high ATP 200 μM)
# Details: 2 nM HPK1, 10 μM ATP; read-out: Biochemical Potency (low ATP)
# Chain of HPK1 (Q92918 whole entry, species assumed): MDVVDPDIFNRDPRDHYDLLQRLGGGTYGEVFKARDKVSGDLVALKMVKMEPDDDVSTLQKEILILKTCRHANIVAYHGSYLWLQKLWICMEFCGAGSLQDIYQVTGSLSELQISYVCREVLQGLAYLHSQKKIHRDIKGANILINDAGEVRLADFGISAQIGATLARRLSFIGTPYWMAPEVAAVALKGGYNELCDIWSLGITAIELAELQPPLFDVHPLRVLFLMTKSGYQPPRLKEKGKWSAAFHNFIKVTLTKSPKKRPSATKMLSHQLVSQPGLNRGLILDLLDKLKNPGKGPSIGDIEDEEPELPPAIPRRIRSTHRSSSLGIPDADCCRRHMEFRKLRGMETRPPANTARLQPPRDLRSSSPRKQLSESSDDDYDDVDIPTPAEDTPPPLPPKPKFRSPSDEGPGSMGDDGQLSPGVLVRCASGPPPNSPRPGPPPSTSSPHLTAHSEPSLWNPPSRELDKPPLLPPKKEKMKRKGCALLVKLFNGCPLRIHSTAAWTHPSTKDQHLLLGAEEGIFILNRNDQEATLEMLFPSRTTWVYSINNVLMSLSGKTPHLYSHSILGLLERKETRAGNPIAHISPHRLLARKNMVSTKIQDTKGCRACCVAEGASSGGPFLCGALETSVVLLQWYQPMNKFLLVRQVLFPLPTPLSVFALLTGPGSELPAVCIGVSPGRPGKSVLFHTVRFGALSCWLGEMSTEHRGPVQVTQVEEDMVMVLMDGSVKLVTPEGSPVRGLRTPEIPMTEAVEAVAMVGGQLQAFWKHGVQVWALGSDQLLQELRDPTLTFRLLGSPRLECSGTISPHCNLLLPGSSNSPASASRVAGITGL
row,Compound,IC50
1,"FC1(F)CCN(Cc2nc(Nc3cc4nc(-c5ccncc5)sc4cn3)ccc2C2CCOCC2)C1 [Example 218, 6-[(3,3-Difluoropyrrolidin-1-yl)methyl]-5-(oxan-4-yl)-N-[2-(pyridin-4-yl)-[1,3]thiazolo[5,4-c]pyridin-6-yl]pyridin-2-amine]",< 100 nM
2,"Cc1cc(Nc2cc3nc(-c4nccn4C)sc3cn2)nc(O[C@H]2CCNC2)c1 [Example 183, 4-Methyl-N-[2-(1-methyl-1H-imidazol-2-yl)-[1,3]thiazolo[5,4-c]pyridin-6-yl]-6-[(3S)-pyrrolidin-3-yloxy]pyridin-2-amine]",< 100 nM
3,"Cc1cc(Nc2cc3nc(-c4ncccc4C)sc3cn2)nc(O[C@H]2CCCNC2)c1 [Example 161, 4-Methyl-N-[2-(3-methylpyridin-2-yl)-[1,3]thiazolo[5,4-c]pyridin-6-yl]-6-[(3S)-piperidin-3-yloxy]pyridin-2-amine]",< 100 nM
4,"Cc1cc(Nc2cc3nc(N4CCC[C@H](O)C4)sc3cn2)nc(O[C@H]2CCNC2)c1 [Example 192, (3S)-1-(6-{[4-Methyl-6-((3S)-pyrrolidin-3-yloxy)pyridin-2-yl]amino}-[1,3]thiazolo[5,4-c]pyridin-2-yl)piperidin-3-ol]",< 100 nM
5,"Cc1cccnc1-c1nc2cc(Nc3ccc(C(C)C)c(CN4CCCC4)n3)ncc2s1 [Example 226, N-[2-(3-Methylpyridin-2-yl)-[1,3]thiazolo[5,4-c]pyridin-6-yl]-5-(propan-2-yl)-6-[(pyrrolidin-1-yl)methyl]pyridin-2-amine]",< 100 nM
6,"Cc1cc(C)n(-c2nc3cc(Nc4ccc(N5CCOCC5)c(CN5CCCC5)n4)ncc3s2)n1 [Example 196, N-[2-(3,5-Dimethyl-1H-pyrazol-1-yl)-[1,3]thiazolo[5,4-c]pyridin-6-yl]-5-(morpholin-4-yl)-6-[(pyrrolidin-1-yl)methyl]pyridin-2-amine]",< 100 nM
7,"Cc1ccc(Nc2cc3nc(-c4cnn(C(F)(F)F)c4)sc3cn2)nc1CN1CCCC1 [Example 36, 5-Methyl-6-[(pyrrolidin-1-yl)methyl]-N-{2-[1-(trifluoromethyl)-1H-pyrazol-4-yl]-[1,3]thiazolo[5,4-c]pyridin-6-yl}pyridin-2-amine]",100 to 1000 nM
8,"CN1C[C@@H]2C[C@H]1CN2c1nccc(Nc2cc3nc(-c4cccc(C(=O)N5CCCC5)c4)sc3cn2)n1 [Example 126, 2-[(1S,4S)-5-Methyl-2,5-diazabicyclo[2.2.1]heptan-2-yl]-N-{2-[3-(pyrrolidine-1-carbonyl)phenyl]-[1,3]thiazolo[5,4-c]pyridin-6-yl}pyrimidin-4-amine]",< 100 nM
9,"Cc1ccc(Nc2cc3nc(-c4ncccc4C)sc3cn2)nc1CN1CCC[C@H]1CO [Example 48, [(2S)-1-[(3-Methyl-6-{[2-(3-methylpyridin-2-yl)-[1,3]thiazolo[5,4-c]pyridin-6-yl]amino}pyridin-2-yl)methyl]pyrrolidin-2-yl]methanol]",< 100 nM
10,"Cc1ccc(Nc2cc3nc(-c4ccc(F)cc4)sc3cn2)nc1CN1CCCC1 [Example 32, N-[2-(4-Fluorophenyl)-[1,3]thiazolo[5,4-c]pyridin-6-yl]-5-methyl-6-[(pyrrolidin-1-yl)methyl]pyridin-2-amine]",< 100 nM
11,"Cc1ccc(Nc2cc3nc(-n4nccc4C)sc3cn2)nc1N1C[C@@H](N)C[C@H]1CO [Example 201, [(2S,4S)-4-Amino-1-(3-methyl-6-{[2-(5-methyl-1H-pyrazol-1-yl)-[1,3]thiazolo[5,4-c]pyridin-6-yl]amino}pyridin-2-yl)pyrrolidin-2-yl]methanol]",< 100 nM

# The remaining lines, values ahead:
row,IC50,Compound
1,< 100 nM,"Cc1cc(Nc2cc3nc(-c4ccc(S(C)(=O)=O)cc4)sc3cn2)nc(O[C@H]2CCNC2)c1 [Example 186, N-[2-(4-Methanesulfonylphenyl)-[1,3]thiazolo[5,4-c]pyridin-6-yl]-4-methyl-6-[(3S)-pyrrolidin-3-yloxy]pyridin-2-amine]"
2,100 to 1000 nM,"Cc1cc(Nc2cc3nc(-c4cc5n(n4)CC(=O)N(C(C)C)CC5)sc3cn2)nc(O[C@H]2CCNC2)c1 [Example 185, 2-(6-{[4-Methyl-6-((3S)-pyrrolidin-3-yloxy)pyridin-2-yl]amino}-[1,3]thiazolo[5,4-c]pyridin-2-yl)-6-(propan-2-yl)-4H,5H,6H,7H,8H-pyrazolo[1,5-d][1,4]diazepin-7-one]"
3,< 100 nM,"Cc1cccnc1-c1nc2cc(Nc3ccc(N4CCC(F)(F)C4)c(C(C)(C)N)n3)ncc2s1 [Example 272, 6-(2-Aminopropan-2-yl)-5-(3,3-difluoropyrrolidin-1-yl)-N-[2-(3-methylpyridin-2-yl)-[1,3]thiazolo[5,4-c]pyridin-6-yl]pyridin-2-amine]"
4,< 100 nM,"CN1C[C@@H]2C[C@H]1CN2c1nccc(Nc2cc3nc(-c4cccc(C(C)(C)O)c4)sc3cn2)n1 [Example 122, 2-{3-[6-({2-[(1S,4S)-5-Methyl-2,5-diazabicyclo[2.2.1]heptan-2-yl]pyrimidin-4-yl}amino)-[1,3]thiazolo[5,4-c]pyridin-2-yl]phenyl}propan-2-ol]"
5,1000 to 5000 nM,"Cc1cccnc1-c1nc2cc(Nc3ccc(N4CCC(F)(F)C4)c(N4CCCC4)n3)ncc2s1 [Example 280, 5-(3,3-Difluoropyrrolidin-1-yl)-N-[2-(3-methylpyridin-2-yl)-[1,3]thiazolo[5,4-c]pyridin-6-yl]-6-(pyrrolidin-1-yl)pyridin-2-amine]"
6,< 100 nM,"Cc1cc(Nc2cc3nc(-c4ccnc(C)c4)sc3cn2)nc(N2CCC(C)(N)C2)c1 (centres unmarked) [Example 73, 6-(3-Amino-3-methylpyrrolidin-1-yl)-4-methyl-N-[2-(2-methylpyridin-4-yl)-[1,3]thiazolo[5,4-c]pyridin-6-yl]pyridin-2-amine]"
7,< 100 nM,"c1cc(-c2nc3cc(Nc4nccc(N5C[C@@H]6C[C@H]5CN6)n4)ncc3s2)ccn1 [Example 241, 4-[(1S,4S)-2,5-Diazabicyclo[2.2.1]heptan-2-yl]-N-[2-(pyridin-4-yl)-[1,3]thiazolo[5,4-c]pyridin-6-yl]pyrimidin-2-amine]"
8,< 100 nM,"Cc1cc(Nc2cc3nc(-c4ccncc4C)sc3cn2)nc(O[C@H]2CCNC2)c1 [Example 169, 4-Methyl-N-[2-(3-methylpyridin-4-yl)-[1,3]thiazolo[5,4-c]pyridin-6-yl]-6-[(3S)-pyrrolidin-3-yloxy]pyridin-2-amine]"
9,100 to 1000 nM,"Cc1ccc(Nc2cc3nc(-c4cnccn4)sc3cn2)nc1CN1CCCC1 [Example 56, 5-Methyl-N-[2-(pyrazin-2-yl)-[1,3]thiazolo[5,4-c]pyridin-6-yl]-6-[(pyrrolidin-1-yl)methyl]pyridin-2-amine]"
10,100 to 1000 nM,"Cc1cccnc1-c1nc2cc(Nc3cccc(N4C[C@H](C)N(C)[C@@H](C)C4)n3)ncc2s1 [Example 102, N-[2-(3-Methylpyridin-2-yl)-[1,3]thiazolo[5,4-c]pyridin-6-yl]-6-[(3S,5S)-3,4,5-trimethylpiperazin-1-yl]pyridin-2-amine]"
11,< 100 nM,"Cc1cccnc1-c1nc2cc(Nc3ccc(C4CCOCC4)c(N4C[C@@H]5C[C@H]4CN5C)n3)ncc2s1 [Example 247, 6-[(1S,4S)-5-Methyl-2,5-diazabicyclo[2.2.1]heptan-2-yl]-N-[2-(3-methylpyridin-2-yl)-[1,3]thiazolo[5,4-c]pyridin-6-yl]-5-(oxan-4-yl)pyridin-2-amine]"
12,< 100 nM,"C[C@H]1CCCCN1c1nc2cc(Nc3ccc(C4CCOCC4)c(CN4CCCC4)n3)ncc2s1 [Example 236, N-{2-[(2S)-2-Methylpiperidin-1-yl]-[1,3]thiazolo[5,4-c]pyridin-6-yl}-5-(oxan-4-yl)-6-[(pyrrolidin-1-yl)methyl]pyridin-2-amine]"
13,< 100 nM,"CN1C[C@@H]2C[C@H]1CN2c1cncc(Nc2cc3nc(-c4cccc(C(=O)N5CCCC5)c4)sc3cn2)n1 [Example 147, 6-[(1S,4S)-5-Methyl-2,5-diazabicyclo[2.2.1]heptan-2-yl]-N-{2-[3-(pyrrolidine-1-carbonyl)phenyl]-[1,3]thiazolo[5,4-c]pyridin-6-yl}pyrazin-2-amine]"
14,< 100 nM,"CN1C[C@@H]2C[C@H]1CN2c1cncc(Nc2cc3nc(-c4ccncc4)sc3cn2)n1 [Example 146, 6-[(1S,4S)-5-Methyl-2,5-diazabicyclo[2.2.1]heptan-2-yl]-N-[2-(pyridin-4-yl)-[1,3]thiazolo[5,4-c]pyridin-6-yl]pyrazin-2-amine]"
15,< 100 nM,"COc1ccc(N2C[C@@H]3C[C@H]2CN3C)nc1Nc1cc2nc(-c3ncccc3C)sc2cn1 [Example 118, 3-Methoxy-6-[(1S,4S)-5-methyl-2,5-diazabicyclo[2.2.1]heptan-2 yl]-N-[2-(3-methylpyridin-2-yl)-[1,3]thiazolo[5,4-c]pyridin-6-yl]pyridin-2-amine]"
16,< 100 nM,"CN1C[C@@H]2C[C@H]1CN2c1nccc(Nc2cc3nc(-c4ccnc(N5CC[C@H](F)C5)c4)sc3cn2)n1 [Example 265, N-(2-{2-[(3S)-3-Fluoropyrrolidin-1-yl]pyridin-4-yl}-[1,3]thiazolo[5,4-c]pyridin-6-yl)-2-[(1S,4S)-5-methyl-2,5-diazabicyclo[2.2.1]heptan-2-yl]pyrimidin-4-amine]"
17,< 100 nM,"Cc1cccnc1-c1nc2cc(Nc3ccc(C4CCOCC4)c(NCc4nccn4C)n3)ncc2s1 [Example 251, N2-[(1-Methyl-1H-imidazol-2-yl)methyl]-N6-[2-(3-methylpyridin-2-yl)-[1,3]thiazolo[5,4-c]pyridin-6-yl]-3-(oxan-4-yl)pyridine-2,6-diamine]"
18,100 to 1000 nM,"Cc1ccc(Nc2cc3nc(-c4ncccc4C)sc3cn2)nc1CCN1CCCC1 [Example 62, 5-Methyl-N-[2-(3-methylpyridin-2-yl)-[1,3]thiazolo[5,4-c]pyridin-6-yl]-6-[2-(pyrrolidin-1-yl)ethyl]pyridin-2-amine]"

# Same assay, conditions: HPK1 ADP-Glo assay, low ATP (10 μM ATP, 2 nM HPK1); read-out: Biochemical Potency (low ATP)
row,IC50,Compound
1,< 100 nM,c1cnn(-c2nc3cc(Nc4cc(C5CCOCC5)nc(N5C[C@@H]6C[C@H]5CN6)n4)ncc3s2)c1 [Example 437]
2,< 100 nM,CN1C[C@@H]2C[C@H]1CN2c1nccc(Nc2cc3nc(-c4ccnc(N5CC[C@H](O)C5)c4)sc3cn2)n1 [Example 462]
3,< 100 nM,CC(C)(O)c1cccc(-c2nc3cc(Nc4cc(C5CCOCC5)nc(N5C[C@@H]6C[C@H]5CN6)n4)ncc3s2)c1 [Example 442]
